# Literature values, collected in patent publication US20120064152A1, “Analgesic and Anti-Inflammatory Compositions Comprising Domperidone and Methods of Using Same” (THE BOOTS COMPANY, priority 1996, published 2012).
# Read-outs that look alike come from different tables or passages of the source.
# Details: oral 100 mg sumatriptan
structure (smiles),measurement,setting,value
CNS(=O)(=O)Cc1ccc2[nH]cc(CCN(C)C)c2c1 [sumatriptan],effectiveness compared with aspirin 900 mg plus 10 mg metoclopramide,initial attacks,as effective as aspirin 900 mg plus 10 mg metoclopramide
same,effectiveness compared with aspirin 900 mg plus 10 mg metoclopramide,subsequent attacks,more effective
